Data set [1] concerns rabbit cornea (intraocular enzymes). The data set is classed as in vivo. The conditions noted are these: topical, 2% (w/v) aqueous solution. How it is done: The tissue was homogenized in an alkaline buffer (pH 10.0) to give 10% (w/v) homogenate, and extracted twice with equal volumes of methylene chloride/diethyl ether mixture (1:4, v/v) by shaking for 15 minutes. The organic layer was separated, then re-extractedwith an equal volume of aqueous 0.1M hydrochloric acid solution. The aqueous phase was made alkaline (pH 10.0) and extracted with methylene chloride/diethyl ether, the organic layer was transferred to a deactivated glass vial, and the solvent was evaporated at reduced pressure under nitrogen stream. The residue was dissolved in 0.01M hydrochloric acid solution and analyzed by high-performance liquid chromatography (HPLC). A Supelcosil LC-8-DB analytical column (7.5 cm×4.6 mm i.d., 3 μm particle size) and mobile phase (1.5 mL/min flow rate) consisting of 30% acetonitrile in an aqueous buffer solution of 0.02M monobasic potassium phosphate (adjusted to pH 3.0 with phosphoric acid) and 0.01 (v/v) triethylamine. UV detection at 280 nm was applied. […] The same experiment was carried out by administering 1-(isopropylamino)-3-(2-allylphenoxy)-2-propanone oxime hydrochloride salt in 2% (w/v) aqueous solution. […]

Data set [2] relates to resting heart rate of rats. The data set is described as follows: Effect on resting heart rate in rats. In kind it is in vivo, rat (male Sprague-Dawley). The conditions noted are these: 6 mg/kg i.v. (Example 6). As to the method:
(§1) Groups of seven male Sprague-Dawley rats weighing 150-250 g were used. Each animal was anesthetized with sodium pentobarbital (50 mg/kg) and the jugular vein was cannulated with PE50 tubing. This cannula was subcutaneously threaded around the neck and exteriorized dorsally. The cannula was filled with heparin solution ([…]) and sealed with a solid 22-gauge stylet. Animals were housed in individual stainless steel cages and at least 24 hours were allowed for recovery from the surgery. Food and water were provided ad libitum. On the day of the experiment, the heart rate of each rat was monitored with a plethsmograph and the data recorded on a Physioscribe II recorder. One hour was allowed as an equilibration period before any drugs were administered. Drugs were dissolved in normal saline as 0.3% solution and were administered intravenously at a dose of 6 mg/kg. The resting heart rate was then recorded after 1, 3, 5, 10 and 15 minutes following i.v. injection. […] A control group of seven animals was intravenously administered saline solution and was treated exactly in the same manner as the drug-treated groups. The significance of the difference between the effect of saline solution and the drugs under investigation on the resting heart rate and on isoprenaline tachycardia was analyzed using the student's "t" test. Values are given as mean ±S.E. of the mean. […] (.) carteolol HCl, 1c; .circle. propranolone ketoxime HCl, 6a; (.gradient.) timolone ketoxime oxalate, 6b; (Δ) N-isopropyl timolone ketoxime HCl, 6d; carteolone oxime HCl, 6c; and (---) saline solution. […] Drugs were administered to groups of 5 rats using a stomach tube and the heart rate was recorded for 1 hour. […] A control group of 5 rats was treated exactly in the same manner after the oral administration of the appropriate volume of saline solution.

Data set [3] concerns Intraocular Pressure (IOP) of Rabbits. Description: Effect on the Intraocular Pressure (IOP) of Rabbits. The data set is classed as in vivo, rabbit (male New Zealand albino). The conditions noted are these: for ocular hypotensive activity (in words): topical, dose levels used; for % change after treatment (IOP) / IOP, drug-treated: Table 3, 1% solution. How it is done: The animals were kept in individual cages with free access to food and water. Intraocular pressure was measured using a Digilab model 30R pneumatonometer. The pneumatonometer readings were checked at least twice a day using the Digilab calibration verifier. All measurements were obtained from unrestrained, unanesthetized rabbits. One drop of 0.5% propacaine (Ophthetic-Allergen Pharmaceuticals, Inc.) diluted 1:2 with saline was instilled in each eye immediately prior to IOP measurement. Drugs were administered as 1 or 2.5% solution in buffer pH 7.4 or in saline in both eyes of a group of at least four rabbits. Another group of at least three rabbits served as control and was administered the carrier only. […] Values are given as means ± standard error (S.E.) of the mean. The significance of the change was determined using the student's t-test.

The subject of data set [4] is isoprenaline-induced tachycardia. The data set is described as follows: Effect on isoprenaline-induced tachycardia in rats (β-adrenergic antagonist activity). The data set is classed as in vivo, rat (male Sprague-Dawley). The conditions noted are these: for β-antagonist activity: dose levels used; for β-adrenergic antagonist activity against isoprenaline-tachycardia: rats, 6 mg/kg i.v., isoprenaline 50 μg/kg s.c., FIG. 1. How it is done:
as §1

Data set [5] in a line: Spontaneous isomerization of HCl salts of oximes (I'). In kind it is physicochemical. The conditions noted are these: HCl salts in solution. An excerpt:
Spontaneous isomerization of HCl salts of compounds of formula (I') was also observed in solution; it was not observed in oxalates or bases of (I'). […] Acid-catalyzed isomerization was in most cases found to result in formation of the opposite isomers in solutions and in suspensions, respectively. In suspension, clearly the less soluble isomer is forming.

The conditions of data set [6]: propranolol enantiomers; cited from earlier work.
A further data set is described as follows: Hygroscopicity. The data set is classed as physicochemical. The conditions noted are these: crystals. As to the method:
In a 50 mL round-bottomed flask was placed a solution of oxalic acid (0.20 g, 2.22 mmole) in ether (10 mL). To this solution was added a solution of 5b (0.43 g, 1.3 mmole) in ether. The mixture was stirred at room temperature for 1 hour. The white non-hygroscopic crystals were filtered and dried in vacuo. Yield 0.53 g (97%), m.p. 165°-166° (dec.). NMR (CDCl3) δ 5.3 (s, 2H), 3.9-3.7 (m, 4H), 3.6-3.4 (m, 6H), 1.1 (s, 9H). Anal. (C18 H25 O7 N5), C,H,N.

Structures are written as SMILES. Structures can show the parent of a compound that is named as a salt.

For `C=CCc1ccccc1OCC(CNC(C)C)=NO.Cl` [1-(isopropylamino)-3-(2-allylphenoxy)-2-propanone oxime hydrochloride], the “metabolites identified in cornea” value in data set [1] was “showed the presence of the two oxime isomers, the corresponding ketone 1-(isopropylamino)-3-(2-allylphenoxy)-2-propanone, and the β-adrenergic blocker 1-(isopropylamino)-3-(2-allylphenoxy)-2-propanol(alprenolol)”.
As to `CC(C)(C)NCC(O)COc1cccc2c1CCC(=O)N2` (stereo not drawn) [Compound 1c, reference compound], the “activity on resting heart rate (negative chronotropic action)” value (“activity on resting heart rate” for short) in data set [2] was “lowest activity on the heart rate of rats”.
For the compound `CC(C)(C)NCC(COc1cccc2c1CCC(=O)N2)=NO` [Compound 6c, 5-[3-(tert-Butylaminno)-2-(hydroxyimino)propoxy]-3,4-dihydrocarbostyril Hydrochloride], the “ocular hypotensive activity (in words)” value in data set [3] (rabbits) is reported as “low activity at the dose levels used”. Moreover, in data set [4], the β-antagonist activity entry is “some β-antagonist activity” and the “β-adrenergic antagonist activity against isoprenaline-tachycardia” value (“β-adrenergic antagonist activity” for short) was “least active”. Further, in data set [2], the “activity on resting heart rate” value is recorded as “less active”.
`CC(C)NCC(COc1nsnc1N1CCOCC1)=NO.Cl` [Compound 6d, 1-(Isopropylamino)-3-[(4-morpholino-1,2,5-thiadiazol-3-yl)oxy]-2-propanone oxime Hydrochloride]: in data set [3] (selected dosage level), the activity result was “inactive at the selected dosage level”. Besides, in data set [3] (rabbits), the “ocular hypotensive activity (in words)” value was “low activity at the dose levels used”. Besides, in data set [4], the β-antagonist activity entry is on record as “some β-antagonist activity” and the “β-adrenergic antagonist activity” value was “least active”. Moreover, the “activity on resting heart rate” value in data set [2] is recorded as “less active”.
As for `Cc1ccc(Cl)c(OCC(CNC(C)(C)C)=NO)c1` [Il], the spontaneous isomerization entry in data set [5] was “no isomerization of Il was observed”.
For the compound `CC(C)NC[C@@H](O)COc1cccc2ccccc12` [R-(+)-enantiomer], the “metabolism relative to S-form” value in data set [6] is on record as “metabolized faster than the S-form”.
For `CC(C)NC[C@H](O)COc1cccc2ccccc12` [S-(-)-isomer], the “potency relative to R-(+)-enantiomer” value in data set [6] is on record as “about 100 times”.
Consider `CC(C)(C)NCC(COc1nsnc1N1CCOCC1)=NO.O=C(O)C(=O)O` [Timolone oxime oxalate 6b, 1-(tert-Butylamino)-3-[(4-morpholino-1,2,5-thiadiazol-3-yl)oxy]-2-propanoneoxime oxalate], for which the “% change after treatment (IOP)” value is -2.43% in data set [3] (30 min.); -14.56% in data set [3] (1 hr.); -15.61% in data set [3] (2 hr.); -11.64% in data set [3] (3 hr.); -5.49% in data set [3] (5 hr.); “+1.20%” in data set [3] (6 hr.). Further, the “% change after treatment (IOP)” value in data set [3] (8 hr.) is recorded as -7.42%; in data set [3] (time zero), 0.00%. Besides, the “IOP, drug-treated” value in data set [3] (30 min.) came out at 27.75 ± 0.68 mm/Hg; in data set [3] (1 hr.), 24.30 ± 0.63 mm/Hg; in data set [3] (2 hr.) it was 24.00 ± 0.44 mm/Hg; in data set [3] (3 hr.) it was 25.13 ± 0.96 mm/Hg; in data set [3] (4 hr.) it was 26.93 ± 0.48 mm/Hg; in data set [3] (5 hr.), 26.88 ± 0.52 mm/Hg. The “IOP, drug-treated” value in data set [3] (6 hr.) is on record as 28.78 ± 0.91 mm/Hg; in data set [3] (8 hr.), 26.33 ± 0.40 mm/Hg; in data set [3] (time zero), 28.44 ± 0.63 mm/Hg. Moreover, the “ocular hypotensive activity compared with parent β-blocker” value in data set [3] (same dose levels, rabbits) is “faster in its onset and shorter in its duration than timolol 1b itself”. Moreover, in data set [3] (rabbits), the “ocular hypotensive activity (in words)” value is “significant ocular hypotensive activity”. Moreover, in data set [4], the “β-adrenergic antagonist activity” value is recorded as “most effective”. Also, the hygroscopicity result in the data set “Hygroscopicity” is “non-hygroscopic”. Also, the “activity on resting heart rate” value in data set [2] is listed as “highest activity”.

These data come from US5017618A, “Labile derivatives of ketone analogs of 3-substituted-1-alkylamino-2-propanols and their use as beta-adrenergic blockers” (priority 1989, dated 1991).
